“And” between values parts separate entries of the source, which are not always exact repeats. Equal entries are not always repeated.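 Exposure lasted 48 hours, with cells grown in 96-well plates and compounds tested at five concentrations. GI50 marks 50% less growth. TGI marks complete inhibition of growth.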
Experiments:
Experiment in all cases: NCI-60 cell line screen, 48 h
[1] = system: RPMI-8226 leukemia
[2] = system: A549 NSCLC
[3] = system: NCI-H23 lung
[4] = system: SF-295 CNS
[5] = system: NCI-H460 lung
[6] = system: HOP-92 NSCLC
[7] = system: UO-31 renal
[8] = system: CAKI-1 renal
[9] = system: EKVX NSCLC
[10] = system: OVCAR-5 ovarian

SMILES | TGI [1] | TGI [2] | TGI [3] | TGI [4] | TGI [5] | TGI [6] | TGI [7] | TGI [8] | TGI [9] | TGI [10] | GI50 [4] [µM] | GI50 [7] [µM] | GI50 [8] [µM] | GI50 [1] [µM] | GI50 [2] [µM] | GI50 [3] [µM] | GI50 [5] [µM] | GI50 [6] [µM] | GI50 [9] [µM] | GI50 [10] [µM]
CC1OC(OCC2OC(Oc3c(-c4ccc(O)cc4)oc4cc(O)cc(O)c4c3=O)C(OC3OC(C)C(O)C(O)C3O)C(O)C2O)C(O)C(O)C1O (stereo unspecified) | > 81.3 µM | > 100 µM | > 100 µM | > 100 µM | > 100 µM | > 100 µM | > 100 µM | > 100 µM | > 100 µM | > 100 µM | – | – | – | – | – | – | – | – | – | –
NC1CCCCC1.[O]=[Ge].[O]=[Ge].[O]=[Ge][OH].[O]=[Ge][OH] | > 100 µM | > 100 µM | > 100 µM | > 100 µM | > 100 µM | > 100 µM | > 100 µM | > 100 µM | > 100 µM | > 100 µM | > 100 | > 100 | > 100 | – | – | – | – | – | – | –
OC1c2ccccc2C2(O)C1C(c1ccccc1)C(c1ccccc1)C2(O)c1ccccc1 (stereo unspecified) | 65.1 µM | 81.2 µM | 41.7 µM | 25.5 µM | 19.5 µM | 23.9 µM | 55.5 µM | > 100 µM | 70.8 µM | 26.7 µM | – | – | – | – | – | – | – | – | – | –
CCCC(=O)Nc1cc(C(=O)N2C[C@@H]3C[C@]34C2=CC(=O)c2[nH]cc(C)c24)n(COC)c1 | 37.3 µM and 8.36 µM | 40.7 µM and 47.9 µM | 9.19 µM and 3.6 µM | 50 µM and 20.4 µM | 16.6 µM and 7.35 µM | 11.2 µM and 7.85 µM | 17.3 µM and 94.4 µM | 13 µM and 17.3 µM | 30 µM and 25.2 µM | 50 µM and 10.6 µM | 5.4 | 26.7 | 4.25 | 2.57 | 16.6 | 1.38 | 2.62 | 3.22 | 5.62 | 3.86
COC(=O)C1C(O)CC(c2ccccn2)N(Cc2ccccc2)C1c1ccccn1 (stereo unspecified) | > 100 µM | > 100 µM | > 100 µM | > 100 µM | > 100 µM | > 100 µM | > 100 µM | > 100 µM | > 100 µM | > 100 µM | – | – | – | – | – | – | – | – | – | –
CCOC(=O)C1(Br)C(c2ccccc2)NC(=O)NC1(C)Br (stereo unspecified) | > 88.9 µM | > 100 µM | > 100 µM | > 100 µM | > 100 µM | > 93.5 µM | > 100 µM | > 62.4 µM | > 100 µM | > 100 µM | – | – | – | – | – | – | – | – | – | –
Cc1ccc(S(=O)(=O)NCCNC2=CC(=O)c3nc4ccccc4c4ccnc2c34)cc1 | > 100 µM | 44.5 µM | 49.5 µM | 39 µM | 56.5 µM | 55.7 µM | > 100 µM | 48.3 µM | 89 µM | 65.4 µM | 17.7 | 24.3 | 20.5 | 10.5 | 15.2 | 20.1 | 15.7 | 20.3 | 32.3 | 25
COc1ccc(-c2nc3sc(-c4ccc(Cl)cc4)cn3n2)cc1 | > 50 µM | 5.89 µM | > 50 µM | 31.8 µM | 4 µM | 7.61 µM | 4.51 µM | 8.92 µM | > 50 µM | > 50 µM | 2.81 | 1.19 | 1.79 | 3.67 | 1.59 | 6.66 | 1.33 | 0.915 | 4.82 | 2.78
O=C(O)[C@@H]1[C@H](C(=O)O)[C@H](C(=O)O)C[C@@H]1C(=O)O | > 100 µM | > 100 µM | > 100 µM | > 100 µM | > 100 µM | > 100 µM | > 100 µM | > 100 µM | > 100 µM | > 100 µM | – | – | – | – | – | – | – | – | – | –
CC(=O)NNc1nc(C)c(C(=O)NNC(=O)C(=O)Nc2c(C)cccc2C)s1 | > 100 µM | > 100 µM | 60.1 µM | > 100 µM | > 100 µM | > 100 µM | > 100 µM | > 100 µM | > 100 µM | > 100 µM | – | – | – | – | – | – | – | – | – | –
COc1cc2c(c(OC)c1OC)-c1ccc(N)c(=O)cc1[C@@H](NC(C)=O)CC2 | > 100 µM | > 100 µM | > 100 µM | – | – | > 100 µM | > 100 µM | > 47.2 µM | > 100 µM | > 100 µM | 0.0339 | 0.705 | 1.42 | 0.0456 | 0.0563 | 0.0316 | 0.0294 | 0.0409 | 0.0808 | 0.202
